Structures can show the parent of a compound that is named as a salt.
biological target: T1, σ1-receptor (Cavia porcellus, UniProt Q60492); assay: σ1-receptor binding assay, [3H]-(+)-pentazocine, guinea pig brain membranes; details: radioligand [3H]-(+)-pentazocine at 5.0 nM; guinea pig brain membrane; 150 min at 37° C.; nonspecific binding with 1 μM haloperidol
T1 construct: Guinea pig brains were homogenized in 10 vols; (w/v) of Tris-HCl 50 mM 0.32 M sucrose; from tissue; host or cells: guinea pig brain membranes
Protocol: Brain membrane preparation and binding assays for the σ1-receptor were performed as described (DeHaven-Hudkins, D. L., L. C. Fleissner, and F. Y. Ford-Rice, 1992, Characterization of the binding of [^3H](+)pentazocine to σ recognition sites in guinea pig brain, Eur. J. Pharmacol. 227, 371-378) with some modifications. Guinea pig brains were homogenized in 10 vols. (w/v) of Tris-HCl 50 mM 0.32 M sucrose, pH 7.4, with a Kinematica Polytron PT 3000 at 15000 r.p.m. for 30 s. The homogenate was centrifuged at 1000 g for 10 min at 4° C. and the supernatants collected and centrifuged again at 48000 g for 15 min at 4° C. The pellet was resuspended in 10 volumes of Tris-HCl buffer (50 mM, pH 7.4), incubated at 37° C. for 30 min, and centrifuged at 48000 g for 20 min at 4° C. Following this, the pellet was re-suspended in fresh Tris-HCl buffer (50 mM, pH 7.4) and stored on ice until use.
The radioligand used was [^3H]-(+)-pentazocine at 5.0 nM and the final volume was 200 μl. The incubation was initiated with the addition of 100 μl of membrane at a final tissue concentration of approximately 5 mg tissue net weight/mL and the incubation time was 150 m. at 37° C. After incubation, the membranes were collected onto pretreated glass fiber filterplate (MultiScreen-FC, Millipore), with polyethylenimine 0.1%. The filters were washed two times with 200 μl of washing buffer (50 mM Tris Cl, pH=7.4) and then 25 μl of Ecoscint H liquid scintillation cocktail were added. Microplates were allowed to set for several hours and then quantified by liquid scintillation spectrophotometry (1450 Microbeta, Wallac). Nonspecific binding was determined with 1 μM haloperidol.

T1 sequence (Q60492 whole entry): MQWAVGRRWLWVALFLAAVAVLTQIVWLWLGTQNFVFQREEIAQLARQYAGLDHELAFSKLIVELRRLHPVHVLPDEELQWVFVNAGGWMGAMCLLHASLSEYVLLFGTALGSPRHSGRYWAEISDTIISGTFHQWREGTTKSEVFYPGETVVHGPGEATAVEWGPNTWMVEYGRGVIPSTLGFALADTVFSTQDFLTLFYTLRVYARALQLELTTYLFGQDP

Row | Ki | SMILES
1 | 37.6 nM | c1ccn2nc(COCCN3CCCCCC3)cc2c1 [Example 2, 2-((2-(azepan-1-yl)ethoxy)methyl)pyrazolo[1,5-a]pyridine maleate]
2 | 90.1 nM | CCCN(CCCCOCc1cc2ccccn2n1)CC1CC1 [Example 3, N-(cyclopropylmethyl)-N-propyl-4-(pyrazolo[1,5-a]pyridin-2-ylmethylpyrazolo[1,5-a]pyridin-2-ylmethoxy)butan-1-amine maleate]
3 | 48 nM | c1ccc2c(c1)CCN(CCCCOCc1cc3ccccn3n1)C2 [Example 4, maleate]
4 | 42.3 nM | c1ccn2nc(COCCCCNC34CC5CC(CC(C5)C3)C4)cc2c1 [Example 5, N-adamantyl-4-(pyrazolo[1,5-a]pyridin-2-ylmethylpyrazolo[1,5-a]pyridin-2-ylmethoxy)butan-1-amine maleate]
5 | 19.5 nM | CN(CCCCOc1cc2ccccn2n1)C1CCN(Cc2ccccc2)CC1 [Example 12, 1-benzyl-N-methyl-N-(4-(pyrazolo[1,5-a]pyridin-2-yloxy)butyl)piperidin-4-amine difumarate]
6 | 118 nM | c1ccn2nc(OCCCCN3CCOCC3)cc2c1 [Example 17, 4-(4-(pyrazolo[1,5-a]pyridin-2-yloxy)butyl)morpholine oxalate]
7 | 74.9 nM | CCN(CC)CCCCOc1cc2ccccn2n1 [Example 19, N,N-diethyl-4-(pyrazolo[1,5-a]pyridin-2-yloxy)butan-1-amine oxalate]
8 | 3.6 nM | CN(CCCCOc1cc2ccccn2n1)Cc1ccccc1 [Example 22, N-benzyl-N-methyl-4-(pyrazolo[1,5-a]pyridin-2-yloxy)butan-1-amine oxalate]
9 | 4.5 nM | CN(CCOc1cc2ccccn2n1)Cc1ccccc1 [Example 24, N-benzyl-N-methyl-2-(pyrazolo[1,5-a]pyridin-2-yloxy)ethanamine oxalate]
10 | 21 nM | CN(CCCCOc1cc2ccccn2n1)CCc1ccccc1 [Example 31, N-methyl-N-phenethyl-4-(pyrazolo[1,5-a]pyridin-2-yloxy)butan-1-amine hydrochloride]
11 | 14.5 nM | CN(CCCCOc1cc2ccccn2n1)Cc1ccncc1 [Example 32, N-methyl-4-(pyrazolo[1,5-a]pyridin-2-yloxy)-N-(pyridin-4-ylmethyl)butan-1-amine dihydrochloride]
12 | 10.6 nM | CCCN(CCCCOc1cc2ccccn2n1)CC1CC1 [Example 35, N-(cyclopropylmethyl)-N-propyl-4-(pyrazolo[1,5-a]pyridin-2-yloxy)butan-1-amine maleate]
13 | 20 nM | c1ccc2c(c1)CCN(CCCCOc1cc3ccccn3n1)C2 [Example 36, 2-(4-(pyrazolo[1,5-a]pyridin-2-yloxy)butyl)-1,2,3,4-tetrahydroisoquinoline maleate]
14 | 14.2 nM | c1ccn2nc(OCCCCNC34CC5CC(CC(C5)C3)C4)cc2c1 [Example 37, N-adamantyl-4-(pyrazolo[1,5-a]pyridin-2-yloxy)-butan-1-amine maleate]
15 | 6.35 nM | CC(C)(C)C1CCN(CCOc2cc3ccccn3n2)CC1 [Example 39, 2-(2-(4-tert-butylpiperidin-1-yl)ethoxy)pyrazolo[1,5-a]pyridine maleate]
16 | 41.1 nM | CN(CCOc1cc2ccccn2n1)CCc1ccccc1 [Example 40, N-methyl-N-phenethyl-2-(pyrazolo[1,5-a]pyridin-2-yloxy)ethanamine maleate]
17 | 14.7 nM | CN(CCOc1cc2ccccn2n1)C1CCN(Cc2ccccc2)CC1 [Example 41, 1-benzyl-N-methyl-N-(2-(pyrazolo[1,5-a]pyridin-2-yloxy)ethyl)piperidin-4-amine dimaleate]
18 | 28.1 nM | CCCN(CCOc1cc2ccccn2n1)CC1CC1 [Example 43, N-(cyclopropylmethyl)-N-(2-(pyrazolo[1,5-a]pyridin-2-yloxy)ethyl)propan-1-amine maleate]
19 | 14.1 nM | c1ccn2nc(OCCN3CCN(C4CCCCC4)CC3)cc2c1 [Example 47, 2-(2-(4-cyclohexylpiperazin-1-yl)ethoxy)pyrazolo[1,5-a]pyridine dimaleate]
20 | 9.7 nM | c1ccn2nc(OCCCCNC3CCCCC3)cc2c1 [Example 50, N-(4-(pyrazolo[1,5-a]pyridin-2-yloxy)butyl)cyclohexanamine maleate]
21 | 25.9 nM | c1c(OCCN2CCCCCC2)nn2c1CCCC2 [Example 53, 2-(2-(azepan-1-yl)ethoxy)-4,5,6,7-tetrahydropyrazolo[1,5-a]pyridine maleate]
22 | 181 nM | c1c(OCCCCN2CCOCC2)nn2c1CCCC2 [Example 56, 4-(4-(4,5,6,7-tetrahydropyrazolo[1,5-a]pyridin-2-yloxy)butyl)morpholine oxalate]

Row | SMILES | Ki
23 | CC(C)(C)C1CCN(CCCCOCc2cc3ccccn3n2)CC1 [Example 1, 2-((4-(4-tert-butylpiperidin-1-yl)butoxy)methyl)pyrazolo[1,5-a]pyridine maleate] | 16.3 nM
24 | c1ccc2c(c1)COC21CCN(CCCCOCc2cc3ccccn3n2)CC1 [Example 6, 1′-(4-(pyrazolo[l,5-a]pyridin-2-ylmethylpyrazolo[1,5-a]pyridin-2-ylmethoxy)butyl)-3H-spiro[isobenzofuran-1,4′-piperidine] maleate] | 23.3 nM
25 | c1ccn2nc(COCCCCN3CCCCCC3)cc2c1 [Example 8, 2-((4-(azepan-1-yl)butoxy)methyl)pyrazolo[1,5-a]pyridine maleate] | 22.2 nM
26 | c1ccn2nc(COCCCCN3CCN(C4CCCCC4)CC3)cc2c1 [Example 10, 2-((4-(4-cyclohexylpiperazin-1-yl)butoxy)methyl)pyrazolo[1,5-a]pyridine maleate] | 75.4 nM
27 | c1ccn2nc(OCCCCN3CCCCC3)cc2c1 [Example 18, 2-(4-(piperidin-1-yl)butoxy)pyrazolo[1,5-a]pyridine oxalate] | 14.7 nM
28 | c1ccn2nc(OCCCCN3CCCC3)cc2c1 [Example 20, 2-(4-(pyrrolidin-1-yl)butoxy)pyrazolo[1,5-a]pyridine oxalate] | 50.7 nM
29 | c1ccc(C2CCN(CCCCOc3cc4ccccn4n3)CC2)cc1 [Example 21, 2-(4-(4-phenylpiperidin-1-yl)butoxy)pyrazolo[1,5-a]pyridine oxalate] | 3.8 nM
30 | c1ccc(OC2CCN(CCCCOc3cc4ccccn4n3)CC2)cc1 [Example 23, 2,(4-(4-phenoxypiperidin-1-yl)butoxy)pyrazolo[1,5-a]pyridine oxalate] | 30.1 nM
31 | c1ccc(N2CCN(CCCCOc3cc4ccccn4n3)CC2)cc1 [Example 25, 2-(4-(4-phenylpiperazin-1-yl)butoxy)pyrazolo[1,5-a]pyridine oxalate] | 19.6 nM
32 | c1ccc2cc(C3CCN(CCCCOc4cc5ccccn5n4)CC3)ccc2c1 [Example 26, 2-(4-(4-(naphthalen-2-yl)piperidin-1-yl)butoxy)pyrazolo[1,5-a]pyridine] | 11 nM
33 | c1ccc2c(c1)COC21CCN(CCCCOc2cc3ccccn3n2)CC1 [Example 27, 1′-(4-(pyrazolo[1,5-a]pyridin-2-yloxy)butyl)-3H-spiro[isobenzofuran-1,4′-piperidine] oxalate] | 9.1 nM
34 | c1ccn2nc(OCCCCN3CCN(C4CCCCC4)CC3)cc2c1 [Example 28, 2-(4-(4-cyclohexylpiperazin-1-yl)butoxy)pyrazolo[1,5-a]pyridine] | 19.9 nM
35 | c1ccn2nc(OCCCCN3CCN(C4CCCCC4)CC3)cc2c1 [Example 29, 2-(4-(4-cyclohexylpiperazin-1-yl)butoxy)pyrazolo[1,5-a]pyridine dimaleate] | 11.3 nM
36 | CC(C)(C)C1CCN(CCCCOc2cc3ccccn3n2)CC1 [Example 30, 2-(4-(4-tert-butylpiperidin-1-yl)butoxy)pyrazolo[1,5-a]pyridine hydrochloride] | 6.2 nM
37 | c1ccn2nc(OCCCCN3CCC4CCCCC4C3)cc2c1 (stereo not drawn) [Example 34, 2-(4-(pyrazolo[1,5-a]pyridin-2-yloxy)butyl)decahydroisoquinoline fumarate] | 5.7 nM
38 | c1ccn2nc(OCCN3CCC4CCCCC4C3)cc2c1 (stereo not drawn) [Example 42, 2-(2-(pyrazolo[1,5-a]pyridin-2-yloxy)ethyl)decahydroisoquinoline maleate] | 3.6 nM
39 | c1ccc2c(c1)COC21CCN(CCOc2cc3ccccn3n2)CC1 [Example 48, 1′-(2-(pyrazolo[1,5-a]pyridin-2-yloxy)ethyl)-3H-spiro[isobenzofuran-1,4′-piperidine] dimaleate] | 15.8 nM
40 | c1ccn2nc(OCCCCN3CCCCCC3)cc2c1 [Example 49, 2-(4-(azepan-1-yl)butoxy)pyrazolo[1,5-a]pyridine maleate] | 7 nM
41 | c1ccn2nc(OCCCCN3CC[C@H]4CCCC[C@@H]4C3)cc2c1 [Example 51, (4aR,8aS)-2-(4-(pyrazolo[1,5-a]pyridin-2-yloxy)butyl)decahydroisoquinoline maleate] | 8.3 nM
42 | c1c(OCCCCN2CCCC2)nn2c1CCCC2 [Example 59, 2-(4-(pyrrolidin-1-yl)butoxy)-4,5,6,7-tetrahydropyrazolo[1,5-a]pyridine oxalate] | 167 nM
